According to patent US20210386068A1, “COMPOSITIONS COMPRISING PYRIDINE CARBOXYLATE HERBICIDES AND VERY LONG CHAIN FATTY ACID (VLCFA) SYNTHESIS INHIBITOR HERBICIDES” (priority 2018, published 2021):

Legend:
Format in all cases: in vivo
[1] = tested on: Kochia scoparia (kochia, KCHSC); test: Greenhouse postemergence herbicidal effect, visual injury 20-22 d after spraying, kochia (KCHSC); conditions: KCHSC
Excerpt: (§1) Seeds of the desired test plant species were planted in a 90:10% v/v (volume/volume) mixture of PRO-MIX® BX (Premier Tech Horticulture, Quakertown, Pa., USA) and PROFILE® GREENS GRADE™ (Profile Products LLC, Buffalo Grove, Ill., USA) planting mixture, which typically has a pH of 5.2 to 6.2 and an organic matter content of at least 50 percent, in plastic pots with a surface area of 103.2 square centimeters (cm^2). In some aspects, to ensure good germination and healthy plants, a fungicide treatment and/or other chemical or physical treatment was applied. The plants were grown for 7-36 days (d) in a greenhouse with an approximate 14-hour (h) photoperiod which was maintained at about 23° C. during the day and 22° C. during the night. Nutrients and water were added on a regular basis and supplemental lighting was provided with overhead metal halide 1000-Watt lamps as necessary. The plants were employed for testing when they reached the second or third true leaf stage.
(§2) Emulsifiable concentrates of each of each pyridine carboxylate herbicide (Compound A or Compound B) were prepared at 100 grams acid equivalent per liter (g ae/L). The emulsifiable concentrates also included a safener, cloquintocet-mexyl, at 120 grams active ingredient per liter (g ai/L). An aliquot of each emulsifiable concentrate was placed in a 25 mL glass vial and diluted with an aqueous mixture of 1.25% (v/v) ACTIROB® B esterified rapeseed oil (Bayer Crop Science, Research Triangle Park, N.C., USA) or MSO® Concentrate with LECI-TECH® methylated soybean oil (Loveland Products, Loveland, Colo., USA) to obtain concentrated stock solutions at the highest application rate for each herbicide, based upon a 12 milliliter (mL) application volume at a rate of 187 liters per hectare (L/ha). The concentrated stock solutions were further diluted with an aqueous mixture of 1.25% v/v ACTIROB® B or MSO® Concentrate with LECI-TECH® to obtain stock solutions at reduced application rates for each herbicide. Spray solutions of the herbicide combinations (Compound A or Compound B plus VLCFA synthesis inhibitor herbicide) were prepared by adding weighed amounts or aliquots of the VLCFA synthesis inhibitor herbicide to the stock solutions of Compound A or Compound B to form 12-mL spray solutions in two-way combinations.
(§3) The spray solutions were applied to the plant material with an overhead Mandel track sprayer equipped with 8002E nozzles calibrated to deliver 187 L/ha over an application area of 0.503 square meters (m^2) at a spray height of 18 inches ([…] (cm)) above the average plant canopy. Control plants were sprayed in the same manner with the solvent blank. All pyridine carboxylate herbicide (component a) application rates are given as “g ae/ha” and all VLCFA synthesis inhibitor herbicide (component b) application rates are given as “g ai/ha.”
(§4) The treated plants and control plants were placed in a greenhouse as described above and watered by sub-irrigation to prevent wash-off of the test compounds. After 20-22 d, the condition of the test plants as compared with that of the control plants was determined visually and scored on a scale of 0 to 100 percent where 0 corresponds to no injury and 100 corresponds to complete kill.

[2] = tested on: Sinapis arvensis (wild mustard, SINAR); test: Greenhouse postemergence herbicidal effect, visual injury 20-22 d after spraying, wild mustard (SINAR); conditions: SINAR
Excerpt: as §1, §2, §3, §4

[3] = tested on: Brassica napus (winter rape, BRSNW); test: Greenhouse postemergence herbicidal effect, visual injury 20-22 d after spraying, winter rape (BRSNW); conditions: BRSNW
Excerpt: as §1, §2, §3, §4

[4] = tested on: Chenopodium album L. (common lambsquarters, CHEAL); test: Greenhouse postemergence herbicidal effect, visual injury 20-22 d after spraying, common lambsquarters (CHEAL)
Excerpt: as §1, §2, §3, §4

[5] = tested on: Salsola kali (Russian thistle, SASKR); test: Greenhouse postemergence herbicidal effect, visual injury 20-22 d after spraying, Russian thistle (SASKR); conditions: SASKR
Excerpt: as §1, §2, §3, §4

[6] = tested on: Matricaria chamomilla (wild chamomile, MATCH); test: Greenhouse postemergence herbicidal effect, visual injury 20-22 d after spraying, wild chamomile (MATCH); conditions: MATCH
Excerpt: as §1, §2, §3, §4

[7] = tested on: Cirsium arvense (Canadian thistle, CIRAR); test: Greenhouse postemergence herbicidal effect, visual injury 20-22 d after spraying, Canadian thistle (CIRAR); conditions: CIRAR
Excerpt: as §1, §2, §3, §4

[8] = tested on: Amaranthus retroflexus (pigweed, AMARE); test: Greenhouse postemergence herbicidal effect, visual injury 20-22 d after spraying, pigweed (AMARE)
Excerpt: as §1, §2, §3, §4

[9] = tested on: Polygonum convolvulus (wild buckwheat, POLCO); test: Greenhouse postemergence herbicidal effect, visual injury 20-22 d after spraying, wild buckwheat (POLCO); conditions: POLCO
Excerpt: as §1, §2, §3, §4

[10] = tested on: Brassica napus (spring rape, BRSNN); test: Greenhouse postemergence herbicidal effect, visual injury 20-22 d after spraying, spring rape (BRSNN)
Excerpt: as §1, §2, §3, §4

[11] = tested on: Hordeum vulgare (spring barley, HORVS); test: Greenhouse postemergence crop phytotoxicity, visual injury 20-22 d after spraying, spring barley (HORVS); conditions: HORVS
Excerpt: as §1, §2, §3, §4

[12] = tested on: Triticum aestivum (spring wheat, TRZAS); test: Greenhouse postemergence crop phytotoxicity, visual injury 20-22 d after spraying, spring wheat (TRZAS); conditions: TRZAS
Excerpt: as §1, §2, §3, §4

For CCCCOCN(C(=O)CCl)c1c(CC)cccc1CC [Butachlor, N-(butoxymethyl)-2-chloro-N-(2,6-diethylphenyl) acetamide], the “% visual injury Obs” value ([1]; Butachlor 450 g/ha alone) was 0%, the “% visual injury Obs” value ([2]; Butachlor 450 g/ha alone) was 0% and the “% visual injury Obs” value ([3]; Butachlor 450 g/ha alone) was 0%. The “% visual injury Obs” value ([4]; Butachlor 450 g/ha alone) was 0%, the “% visual injury Obs” value ([5]; Butachlor 450 g/ha alone) was 0% and the “% visual injury Obs” value ([6]; Butachlor 450 g/ha alone) was 5%. The “% visual injury Obs” value ([7]; Butachlor 450 g/ha alone) was 0%, the “% visual injury Obs” value ([8]; Butachlor 450 g/ha alone) was 0% and the “% visual injury Obs” value ([9]; Butachlor 450 g/ha alone) was 0%.

CCN(CC)C(=O)n1cnc(S(=O)(=O)c2c(C)cc(C)cc2C)n1 [Cafenstrole, N,N-diethyl-3-[(2,4,6-trimethylphenyl)sulfonyl]-1H-1,2,4-triazole-1-carboxamide] was tested, and the “% visual injury Obs” value ([1]; Cafenstrole 52.5 g/ha alone) was 5%, the “% visual injury Obs” value ([10]; Cafenstrole 52.5 g/ha alone) was 5% and the “% visual injury Obs” value ([2]; Cafenstrole 52.5 g/ha alone) was 0%. The “% visual injury Obs” value ([4]; Cafenstrole 52.5 g/ha alone) was 0%, the “% visual injury Obs” value ([11]; Cafenstrole 52.5 g/ha alone) was 0% and the “% visual injury Obs” value ([5]; Cafenstrole 52.5 g/ha alone) was 0%. For the same compound, the “% visual injury Obs” value ([6]; Cafenstrole 52.5 g/ha alone) was 5%, the “% visual injury Obs” value ([9]; Cafenstrole 52.5 g/ha alone) was 5% and the “% visual injury Obs” value ([12]; Cafenstrole 52.5 g/ha alone) was 0%.

With COC[C@H](C)N(C(=O)CCl)c1c(C)csc1C [Dimethenamid-P, (S)-2-chloro-N-(2,4-dimethyl-3-thienyl)-N-(2-methoxy-1-methyl-ethyl)acetamide] the “% visual injury Obs” value ([1]; Dimethenamid-P 560 g/ha alone) was 0%, the “% visual injury Obs” value ([10]; Dimethenamid-P 560 g/ha alone) was 0% and the “% visual injury Obs” value ([2]; Dimethenamid-P 560 g/ha alone) was 0%. The “% visual injury Obs” value ([4]; Dimethenamid-P 560 g/ha alone) was 0%, the “% visual injury Obs” value ([5]; Dimethenamid-P 560 g/ha alone) was 0% and the “% visual injury Obs” value ([6]; Dimethenamid-P 560 g/ha alone) was 0%. For the same compound, the “% visual injury Obs” value ([7]; Dimethenamid-P 560 g/ha alone) was 0%, the “% visual injury Obs” value ([8]; Dimethenamid-P 560 g/ha alone) was 10% and the “% visual injury Obs” value ([9]; Dimethenamid-P 560 g/ha alone) was 0%.

CCN(C(=O)n1nnn(-c2ccccc2Cl)c1=O)C1CCCCC1 [Fentrazamide, 4-(2-chlorophenyl)-N-cyclohexyl-N-ethyl-4,5-dihydro-5-oxo-1H-tetrazole-1-carboxamide] was tested, and the “% visual injury Obs” value ([1]; Fentrazamide 200 g/ha alone) was 0%, the “% visual injury Obs” value ([2]; Fentrazamide 200 g/ha alone) was 0% and the “% visual injury Obs” value ([3]; Fentrazamide 200 g/ha alone) was 0%. The “% visual injury Obs” value ([4]; Fentrazamide 200 g/ha alone) was 0%, the “% visual injury Obs” value ([11]; Fentrazamide 200 g/ha alone) was 0% and the “% visual injury Obs” value ([5]; Fentrazamide 200 g/ha alone) was 0%. For the same compound, the “% visual injury Obs” value ([6]; Fentrazamide 200 g/ha alone) was 0%, the “% visual injury Obs” value ([7]; Fentrazamide 200 g/ha alone) was 0% and the “% visual injury Obs” value ([8]; Fentrazamide 200 g/ha alone) was 0%. The “% visual injury Obs” value ([9]; Fentrazamide 200 g/ha alone) was 5% and the “% visual injury Obs” value ([12]; Fentrazamide 200 g/ha alone) was 0%.

With CN(C(=O)COc1nc2ccccc2s1)c1ccccc1 [Mefenacet, 2-(2-benzothiazolyloxy)-N-methyl-N-phenylacetamide] the “% visual injury Obs” value ([1]; Mefenacet 50 g/ha alone) was 0%, the “% visual injury Obs” value ([10]; Mefenacet 50 g/ha alone) was 5% and the “% visual injury Obs” value ([2]; Mefenacet 50 g/ha alone) was 0%. For the same compound, the “% visual injury Obs” value ([4]; Mefenacet 50 g/ha alone) was 0%, the “% visual injury Obs” value ([5]; Mefenacet 50 g/ha alone) was 0% and the “% visual injury Obs” value ([6]; Mefenacet 50 g/ha alone) was 0%. For the same compound, the “% visual injury Obs” value ([9]; Mefenacet 50 g/ha alone) was 0%.

CCOCCN(C(=O)CCl)C(=C(C)C)c1ccccc1 [Pethoxamid, 2-chloro-N-(2-ethoxyethyl)-N-(2-methyl-1-phenyl-1-propen-1-yl)acetamide] was tested, and the “% visual injury Obs” value ([1]; Pethoxamid 600 g/ha alone) was 0%, the “% visual injury Obs” value ([2]; Pethoxamid 600 g/ha alone) was 0% and the “% visual injury Obs” value ([3]; Pethoxamid 600 g/ha alone) was 0%. The “% visual injury Obs” value ([4]; Pethoxamid 600 g/ha alone) was 0%, the “% visual injury Obs” value ([11]; Pethoxamid 600 g/ha alone) was 0% and the “% visual injury Obs” value ([5]; Pethoxamid 600 g/ha alone) was 0%. The “% visual injury Obs” value ([6]; Pethoxamid 600 g/ha alone) was 0%, the “% visual injury Obs” value ([7]; Pethoxamid 600 g/ha alone) was 0% and the “% visual injury Obs” value ([8]; Pethoxamid 600 g/ha alone) was 0%. The “% visual injury Obs” value ([9]; Pethoxamid 600 g/ha alone) was 0% and the “% visual injury Obs” value ([12]; Pethoxamid 600 g/ha alone) was 0%.

Cn1nc(C(F)(F)F)c(CS(=O)(=O)C2=NOC(C)(C)C2)c1OC(F)F [Pyroxasulfone, 3-[[[5-(difluoromethoxy)-1-methyl-3-(trifluoromethyl)-1H-pyrazol-4-yl]methyl]sulfonyl]-4,5-dihydro-5,5-dimethylisoxazole] was tested, and the “% visual injury” value ([1]; Pyroxasulfone 100 g/ha alone) was 0%, the “% visual injury” value ([2]; Pyroxasulfone 100 g/ha alone) was 28% and the “% visual injury” value ([3]; Pyroxasulfone 100 g/ha alone) was 5%. For the same compound, the “% visual injury” value ([4]; Pyroxasulfone 100 g/ha alone) was 0%, the “% visual injury” value ([5]; Pyroxasulfone 100 g/ha alone) was 10% and the “% visual injury” value ([6]; Pyroxasulfone 100 g/ha alone) was 0%. The “% visual injury” value ([7]; Pyroxasulfone 100 g/ha alone) was 0%, the “% visual injury” value ([8]; Pyroxasulfone 100 g/ha alone) was 5% and the “% visual injury” value ([9]; Pyroxasulfone 100 g/ha alone) was 0%.

With S-Metolachlor the “% visual injury Obs” value ([1]; S-Metolachlor 500 g/ha alone) was 0%, the “% visual injury Obs” value ([2]; S-Metolachlor 500 g/ha alone) was 0% and the “% visual injury Obs” value ([3]; S-Metolachlor 500 g/ha alone) was 0%. For the same compound, the “% visual injury Obs” value ([4]; S-Metolachlor 500 g/ha alone) was 0%, the “% visual injury Obs” value ([11]; S-Metolachlor 500 g/ha alone) was 0% and the “% visual injury Obs” value ([5]; S-Metolachlor 500 g/ha alone) was 0%. For the same compound, the “% visual injury Obs” value ([6]; S-Metolachlor 500 g/ha alone) was 0%, the “% visual injury Obs” value ([7]; S-Metolachlor 500 g/ha alone) was 0% and the “% visual injury Obs” value ([8]; S-Metolachlor 500 g/ha alone) was 0%. The “% visual injury Obs” value ([9]; S-Metolachlor 500 g/ha alone) was 0% and the “% visual injury Obs” value ([12]; S-Metolachlor 500 g/ha alone) was 0%.
